These results are taken from ChEMBL document CHEMBL4190187, “Discovery of pyrazolopyrimidine derivatives as novel inhibitors of ataxia telangiectasia and rad3 related protein (ATR)” (Bioorg Med Chem Lett, 2017).

In general, inhibition refers to the change of the read-out against control, counted positive when it falls.

Assay [1] deals with Mast/stem cell growth factor receptor Kit (Homo sapiens), P10721 [D816H]. Put plainly: Inhibition of recombinant human cKit D816H mutant (544 to end residues) at 1 uM using GGMEDIYFEFMGGKKK as substrate after 40 mins in presence of [gamma-33P]ATP by scintillation counting method.
Assay [2] has as its target Cyclin-dependent kinase 2/cyclin E1 (Homo sapiens) (UniProt P24864+P24941). In words: Inhibition of recombinant full-length human CDK2/Cyclin E at 1 uM using histone H1 as substrate after 40 mins in presence of [gamma-33P]ATP by scintillation counting method. It is filed as protein-complex assay.
In assay [3] the target is Ephrin type-A receptor 2 (Homo sapiens) (UniProt P29317). In words: Inhibition of recombinant human EPHA2 (596 to 900 residues) at 1 uM using poly(Glu,Tyr) 4:1 as substrate after 40 mins in presence of [gamma-33P]ATP by scintillation counting method.
In assay [4] the target is Ephrin type-B receptor 2 (Homo sapiens) (UniProt P29323). In words: Inhibition of recombinant human EPHB2 (560 to end residues) at 1 uM using poly(Glu,Tyr) 4:1 as substrate after 40 mins in presence of [gamma-33P]ATP by scintillation counting method.
Assay [5] has as its target Serine/threonine-protein kinase tousled-like 2 (Homo sapiens) (UniProt Q86UE8). In words: Inhibition of recombinant human TLK2 (387 to end residues) at 1 uM using casein as substrate after 40 mins in presence of [gamma-33P]ATP by scintillation counting method.
The target in assay [6] is Ribosomal protein S6 kinase alpha-5 (Homo sapiens) (UniProt O75582). In words: Inhibition of recombinant human MSK1 (2 to end residues) at 1 uM using GRPRTSSFAEGKK as substrate after 40 mins in presence of [gamma-33P]ATP by scintillation counting method.
In assay [7] the target is Serine/threonine-protein kinase TBK1 (Homo sapiens) (UniProt Q9UHD2). In words: Inhibition of recombinant full-length human TBK1 at 1 uM using KRRRALS(p)VASLPGL as substrate after 40 mins in presence of [gamma-33P]ATP by scintillation counting method.
Assay [8] concerns the target Platelet-derived growth factor receptor beta (Homo sapiens) (UniProt P09619). Put plainly: Inhibition of recombinant human PDGFRbeta (557 to end residues) at 1 uM using poly(Glu,Tyr) 4:1 as substrate after 40 mins in presence of [gamma-33P]ATP by scintillation counting method.
Assay [9] deals with Angiopoietin-1 receptor (Homo sapiens), Q02763 [Y897S]. In words: Inhibition of recombinant activated human Tie2 Y897S mutant (771 to end residues) at 1 uM using EFPIYDFLPAKKK as substrate after 40 mins in presence of [gamma-33P]ATP by scintillation counting method.
For assay [10], the target named is Serine/threonine-protein kinase SIK2 (Homo sapiens) (UniProt Q9H0K1). Put plainly: Inhibition of recombinant human SIK2 (1 to 276 residues) at 1 uM using KKKVSRSGLYRSPSMPENLNRPR as substrate after 40 mins in presence of [gamma-33P]ATP by scintillation counting method.
Serine/threonine-protein kinase SIK2 (Homo sapiens), sequence (Q9H0K1 whole entry, looked up, the tested form may be a part): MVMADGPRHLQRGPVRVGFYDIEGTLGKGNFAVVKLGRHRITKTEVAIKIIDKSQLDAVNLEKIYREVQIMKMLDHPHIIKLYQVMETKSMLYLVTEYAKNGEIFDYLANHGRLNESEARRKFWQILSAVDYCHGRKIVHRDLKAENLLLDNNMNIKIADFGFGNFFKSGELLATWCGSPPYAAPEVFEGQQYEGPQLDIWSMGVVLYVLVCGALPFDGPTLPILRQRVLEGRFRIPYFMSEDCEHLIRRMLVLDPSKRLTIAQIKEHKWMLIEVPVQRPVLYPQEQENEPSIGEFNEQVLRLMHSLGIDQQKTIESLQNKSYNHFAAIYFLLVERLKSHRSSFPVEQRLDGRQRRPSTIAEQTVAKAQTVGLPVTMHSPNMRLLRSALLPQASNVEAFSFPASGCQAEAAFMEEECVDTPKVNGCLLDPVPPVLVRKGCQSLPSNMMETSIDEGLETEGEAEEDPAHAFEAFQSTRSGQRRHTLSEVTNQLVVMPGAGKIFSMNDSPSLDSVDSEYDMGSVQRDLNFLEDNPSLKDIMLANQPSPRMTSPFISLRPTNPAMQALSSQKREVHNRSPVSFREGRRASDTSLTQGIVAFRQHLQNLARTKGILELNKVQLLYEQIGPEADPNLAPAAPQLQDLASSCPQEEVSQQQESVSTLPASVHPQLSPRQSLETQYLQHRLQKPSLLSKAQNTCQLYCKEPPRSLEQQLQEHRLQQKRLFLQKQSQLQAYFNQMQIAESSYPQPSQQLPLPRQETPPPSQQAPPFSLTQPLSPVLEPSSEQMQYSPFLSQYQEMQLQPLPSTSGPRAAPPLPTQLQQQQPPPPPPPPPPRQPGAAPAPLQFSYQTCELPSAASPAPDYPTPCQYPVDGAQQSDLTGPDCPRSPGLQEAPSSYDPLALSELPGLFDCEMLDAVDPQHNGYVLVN
In assay [11] the target is Insulin-like growth factor 1 receptor (Homo sapiens) (UniProt P08069). Put plainly: Inhibition of recombinant human activated IGF-1R (959 to end residues) at 1 uM using KKKSPGEYVNIEFG as substrate after 40 mins in presence of [gamma-33P]ATP by scintillation counting method.
Insulin-like growth factor 1 receptor (Homo sapiens), sequence (P08069 31-736 limits assumed): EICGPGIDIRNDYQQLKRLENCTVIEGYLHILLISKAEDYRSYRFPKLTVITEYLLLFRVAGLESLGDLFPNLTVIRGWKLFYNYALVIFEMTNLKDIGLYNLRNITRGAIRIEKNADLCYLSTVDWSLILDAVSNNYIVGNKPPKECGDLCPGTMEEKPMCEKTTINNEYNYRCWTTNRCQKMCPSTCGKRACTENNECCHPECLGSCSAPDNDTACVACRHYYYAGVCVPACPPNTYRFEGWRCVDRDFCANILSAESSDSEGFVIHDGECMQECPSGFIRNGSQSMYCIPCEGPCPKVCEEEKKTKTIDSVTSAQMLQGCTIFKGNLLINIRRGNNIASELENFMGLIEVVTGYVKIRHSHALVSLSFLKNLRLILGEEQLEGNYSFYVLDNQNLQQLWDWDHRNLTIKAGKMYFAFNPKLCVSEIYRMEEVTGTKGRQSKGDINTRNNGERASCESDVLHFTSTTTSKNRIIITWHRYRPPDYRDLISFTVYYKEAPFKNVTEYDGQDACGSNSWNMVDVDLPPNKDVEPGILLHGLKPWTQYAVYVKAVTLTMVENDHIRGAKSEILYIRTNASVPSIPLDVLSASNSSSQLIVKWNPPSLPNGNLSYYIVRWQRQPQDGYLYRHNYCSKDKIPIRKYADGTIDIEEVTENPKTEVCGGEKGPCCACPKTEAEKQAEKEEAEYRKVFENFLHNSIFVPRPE
Insulin-like growth factor 1 receptor (Homo sapiens), sequence (P08069 741-1367 limits assumed): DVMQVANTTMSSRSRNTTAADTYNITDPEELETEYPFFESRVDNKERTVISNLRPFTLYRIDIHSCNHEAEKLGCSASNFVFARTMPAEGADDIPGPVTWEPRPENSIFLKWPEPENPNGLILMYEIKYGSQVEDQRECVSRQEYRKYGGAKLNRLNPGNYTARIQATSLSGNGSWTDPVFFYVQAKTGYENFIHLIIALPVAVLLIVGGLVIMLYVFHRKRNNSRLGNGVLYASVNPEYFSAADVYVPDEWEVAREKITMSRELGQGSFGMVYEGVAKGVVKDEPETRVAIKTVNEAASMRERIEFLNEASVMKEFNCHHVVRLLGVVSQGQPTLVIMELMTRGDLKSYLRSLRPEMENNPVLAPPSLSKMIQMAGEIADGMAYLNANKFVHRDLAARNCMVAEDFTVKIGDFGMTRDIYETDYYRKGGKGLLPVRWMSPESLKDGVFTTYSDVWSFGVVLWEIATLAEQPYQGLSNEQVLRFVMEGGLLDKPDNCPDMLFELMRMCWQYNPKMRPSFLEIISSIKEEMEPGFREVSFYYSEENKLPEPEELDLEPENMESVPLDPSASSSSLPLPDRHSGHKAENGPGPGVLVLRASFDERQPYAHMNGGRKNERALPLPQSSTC
The test system of assay [12] is Serine/threonine-protein kinase B-raf (Homo sapiens), P15056 [V600E]. In words: Inhibition of recombinant human B-raf V599E mutant (416 to end residues) at 1 uM using myelin basic protein as substrate after 40 mins in presence of [gamma-33P]ATP by scintillation counting method.
Assay [13] addresses Glycogen synthase kinase-3 beta (Homo sapiens) (UniProt P49841). Put plainly: Inhibition of recombinant human GSK3beta (2 to end residues) at 1 uM using YRRAAVPPSPSLSRHSSPHQS(p)EDEEE (phospho GS2 peptide) as substrate after 40 mins in presence of [gamma-33P]ATP by scintillation counting method.
In assay [14] the target is ALK tyrosine kinase receptor (Homo sapiens) (UniProt Q9UM73). In words: Inhibition of recombinant human ALK (1058 to end residues) at 1 uM using KKKSPGEYVNIEFG as substrate after 40 mins in presence of [gamma-33P]ATP by scintillation counting method.
Assay [15] has as its target Insulin-like growth factor 1 receptor (Homo sapiens) (UniProt P08069). Put plainly: Inhibition of recombinant human IGF-1R (959 to end residues) at 1 uM using KKKSPGEYVNIEFG as substrate after 40 mins in presence of [gamma-33P]ATP by scintillation counting method.
Assay [16] has as its system Proto-oncogene tyrosine-protein kinase receptor Ret (Homo sapiens), P07949 [V804L]. Put plainly: Inhibition of recombinant human RET V804L mutant (658 to end residues) at 1 uM using KKKVSRSGLYRSPSMPENLNRPR as substrate after 40 mins in presence of [gamma-33P]ATP by scintillation counting method.
Assay [17] concerns the target Activin receptor type-2A (Homo sapiens) (UniProt P27037). Put plainly: Inhibition of recombinant human ACTR2 (162 to end residues) at 1 uM using casein as substrate after 120 mins in presence of [gamma-33P]ATP by scintillation counting method.
Assay [18] addresses PI3K p110 alpha/p85 alpha (Mus musculus) (UniProt P26450+P42337). In words: Inhibition of recombinant full-length mouse p110a H1047R mutant/p85a at 1 uM using phosphatidylinositol 4,5-bisphosphate as substrate after 40 mins in presence of [gamma-33P]ATP by scintillation counting method. It is filed as protein-complex assay.
Assay [19] concerns the target Serine/threonine-protein kinase Nek7 (Homo sapiens) (UniProt Q8TDX7). Put plainly: Inhibition of recombinant human NEK7 (2 to end residues) at 1 uM using FLAKSFGSPNRAYKK as substrate after 40 mins in presence of [gamma-33P]ATP by scintillation counting method.
Assay [20] has as its target Ephrin type-A receptor 8 (Homo sapiens) (UniProt P29322). Put plainly: Inhibition of recombinant human EPHA8 (615 to 911 residues) at 1 uM using KTFCGTPEYLAPEVRREPRILSEEEQEMFRDFDYIADWC as substrate after 40 mins in presence of [gamma-33P]ATP by scintillation counting method.
In assay [21] the target is Serine/threonine-protein kinase MARK2 (Homo sapiens) (UniProt Q7KZI7). In words: Inhibition of recombinant full-length human PAR-1Balpha at 1 uM using KKKVSRSGLYRSPSMPENLNRPR as substrate after 40 mins in presence of [gamma-33P]ATP by scintillation counting method.
The target in assay [22] is Epidermal growth factor receptor (Homo sapiens) (UniProt P00533). Put plainly: Inhibition of recombinant human EGFR (696 to end residues) at 1 uM using poly(Glu,Tyr) 4:1 as substrate after 40 mins in presence of [gamma-33P]ATP by scintillation counting method.
Assay [23] deals with Tyrosine-protein kinase ABL2 (Homo sapiens) (UniProt P42684). In words: Inhibition of recombinant human ARG (38 to end residues) at 1 uM using EAIYAAPFAKKK as substrate after 40 mins in presence of [gamma-33P]ATP by scintillation counting method.

Ephrin type-A receptor 8 (Homo sapiens), sequence (P29322 whole entry, the tested form may be a part): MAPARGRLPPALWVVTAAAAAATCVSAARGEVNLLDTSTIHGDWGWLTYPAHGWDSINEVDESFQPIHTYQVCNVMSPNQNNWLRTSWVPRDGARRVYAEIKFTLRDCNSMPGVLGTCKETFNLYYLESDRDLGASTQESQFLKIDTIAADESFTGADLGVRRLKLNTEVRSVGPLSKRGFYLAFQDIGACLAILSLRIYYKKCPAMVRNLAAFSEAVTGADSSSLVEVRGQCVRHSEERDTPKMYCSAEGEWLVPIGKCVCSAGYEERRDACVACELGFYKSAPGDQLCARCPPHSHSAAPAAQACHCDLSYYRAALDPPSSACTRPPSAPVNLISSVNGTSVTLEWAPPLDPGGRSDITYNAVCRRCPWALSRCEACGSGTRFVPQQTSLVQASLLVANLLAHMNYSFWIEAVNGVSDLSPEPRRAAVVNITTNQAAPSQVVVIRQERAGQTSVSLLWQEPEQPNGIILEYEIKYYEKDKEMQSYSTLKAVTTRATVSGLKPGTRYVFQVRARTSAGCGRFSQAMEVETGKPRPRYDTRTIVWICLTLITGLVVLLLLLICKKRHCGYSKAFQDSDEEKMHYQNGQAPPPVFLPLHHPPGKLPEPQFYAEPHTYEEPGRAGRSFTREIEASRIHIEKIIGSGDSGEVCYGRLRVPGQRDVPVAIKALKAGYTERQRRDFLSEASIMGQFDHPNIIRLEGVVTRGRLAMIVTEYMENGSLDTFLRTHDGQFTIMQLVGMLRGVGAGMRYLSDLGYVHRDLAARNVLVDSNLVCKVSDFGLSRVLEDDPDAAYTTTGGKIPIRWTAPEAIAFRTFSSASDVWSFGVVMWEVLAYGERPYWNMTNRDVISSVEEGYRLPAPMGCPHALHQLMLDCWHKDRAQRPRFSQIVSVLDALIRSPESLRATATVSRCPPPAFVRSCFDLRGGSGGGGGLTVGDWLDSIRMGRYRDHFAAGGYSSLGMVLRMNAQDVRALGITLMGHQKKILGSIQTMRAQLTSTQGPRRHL
Proto-oncogene tyrosine-protein kinase receptor Ret (Homo sapiens), P07949 [V804L], sequence (P07949 whole entry V804L): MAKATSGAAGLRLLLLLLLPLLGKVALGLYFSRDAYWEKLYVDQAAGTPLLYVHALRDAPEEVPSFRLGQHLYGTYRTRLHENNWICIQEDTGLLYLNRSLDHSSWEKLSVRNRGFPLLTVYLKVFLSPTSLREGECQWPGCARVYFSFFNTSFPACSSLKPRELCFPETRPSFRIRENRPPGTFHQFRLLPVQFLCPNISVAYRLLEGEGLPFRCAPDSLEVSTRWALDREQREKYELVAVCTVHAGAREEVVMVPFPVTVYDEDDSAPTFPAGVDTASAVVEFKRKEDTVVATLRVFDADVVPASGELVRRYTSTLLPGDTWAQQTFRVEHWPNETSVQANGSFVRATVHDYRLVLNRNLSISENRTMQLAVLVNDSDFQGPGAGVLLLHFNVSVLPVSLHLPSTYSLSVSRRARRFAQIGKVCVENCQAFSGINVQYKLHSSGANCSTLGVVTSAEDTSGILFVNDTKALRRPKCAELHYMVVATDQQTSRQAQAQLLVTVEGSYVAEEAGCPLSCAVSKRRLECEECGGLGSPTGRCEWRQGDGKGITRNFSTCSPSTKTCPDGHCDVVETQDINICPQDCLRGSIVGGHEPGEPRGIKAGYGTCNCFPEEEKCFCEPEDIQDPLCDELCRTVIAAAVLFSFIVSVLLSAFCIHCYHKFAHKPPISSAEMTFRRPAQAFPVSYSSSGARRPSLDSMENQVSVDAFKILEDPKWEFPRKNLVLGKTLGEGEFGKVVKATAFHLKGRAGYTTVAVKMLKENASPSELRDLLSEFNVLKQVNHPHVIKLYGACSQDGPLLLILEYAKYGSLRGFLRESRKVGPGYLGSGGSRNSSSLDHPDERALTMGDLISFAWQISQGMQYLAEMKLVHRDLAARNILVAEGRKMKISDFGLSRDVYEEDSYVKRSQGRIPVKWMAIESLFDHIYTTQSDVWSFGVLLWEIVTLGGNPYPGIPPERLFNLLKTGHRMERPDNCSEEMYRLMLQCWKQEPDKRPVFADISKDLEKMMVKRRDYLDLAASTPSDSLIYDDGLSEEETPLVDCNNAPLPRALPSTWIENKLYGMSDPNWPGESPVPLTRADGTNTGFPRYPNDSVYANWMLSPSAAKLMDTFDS
Serine/threonine-protein kinase Nek7 (Homo sapiens), sequence (Q8TDX7 whole entry, looked up, the tested form may be a part): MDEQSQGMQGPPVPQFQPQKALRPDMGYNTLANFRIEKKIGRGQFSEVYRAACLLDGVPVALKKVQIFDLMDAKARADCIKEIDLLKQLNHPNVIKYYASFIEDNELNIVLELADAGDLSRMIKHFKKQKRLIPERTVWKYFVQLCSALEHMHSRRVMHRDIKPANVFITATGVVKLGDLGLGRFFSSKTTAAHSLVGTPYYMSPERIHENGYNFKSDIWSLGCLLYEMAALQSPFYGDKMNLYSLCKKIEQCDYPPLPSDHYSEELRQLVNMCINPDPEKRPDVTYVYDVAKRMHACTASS

`CS(=O)(=O)c1ccc(-n2nc(-c3cnc4[nH]ccc4c3)c3c(N)ncnc32)cc1`: the inhibition came out at 85% in assay [1]; 3% in assay [2]; 9% in [3]; 2% in [4]; 0% in assay [5]; 0% in assay [6]. Moreover, the inhibition in assay [7] was -4%; in [8], -7%; in assay [9], 1%; in assay [10] it was 21%; in [11], 11%; in [12], 93%. The inhibition is 2% in [13]; -4% in [14]; -2% in assay [15]; 20% in [16]; 6% in assay [17]; 14% in assay [18]. Moreover, the inhibition is -1% in assay [19]; 15% in [20]; 6% in assay [21]; 3% in assay [22]; 61% in assay [23].
